Source: patent publication US9765105B2, “Macrolide compound” (Pulike Biological Engineering, Inc., priority 2013, dated 2017)

Experiments:
Assay in all cases: in vitro susceptibility, MIC by mini broth dilution
Type in all cases: cell-based
[1] = system: Staphylococcus aureus CVCC26003; details: strain CVCC26003
In short: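 MICs were determined by mini broth dilution under NCCLS standards in CAMHB, using revived S. aureus CVCC26003 subcultured 20 h at 35° C. Compounds were two-fold serially diluted in DMSO across 11 wells, with duplicate rows. Bacterial suspension was diluted 1:200 in medium before inoculation.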

[2] = system: Streptococcus equines CVCC556; details: strain CVCC556
In short: (§1)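 Bacteria were revived from −20° C stocks and streaked twice on solid medium, each time grown 20 h at 35° C. Compounds were double-diluted in DMSO across 11 wells and tested in two parallel rows. The bacterial suspension was diluted 1:200 with liquid medium before MIC determination by mini broth dilution.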

[3] = system: Actinobacillus pleuropneumoniae CVCC262; details: strain CVCC262
In short: as §1

Haemophilus parasuis = system: Haemophilus parasuis
In short: as §1

[4] = system: Pasteurella multocida CVCC399; details: strain CVCC399
In short: as §1

SMILES | MIC values, Staphylococcus aureus CVCC26003 [1] | MIC values, Streptococcus equines CVCC556 [2] | MIC values, Actinobacillus pleuropneumoniae CVCC262 [3] | MIC values, Haemophilus parasuis (Haemophilus parasuis) | MIC values, Pasteurella multocida CVCC399 [4]
CCCN1C[C@H](C)[C@@H](O)[C@](C)(O)[C@@H](CC)OC(=O)[C@H](C)[C@@H](O[C@H]2C[C@@](C)(OC)[C@](O)(CNc3ccccc3F)[C@H](C)O2)[C@H](C)[C@@H](O[C@@H]2O[C@H](C)C[C@H](N(C)C)[C@H]2O)[C@](C)(O)C[C@H]1C [syzx-168] | 0.25 ug/mi | 0.25 ug/mi | 0.25 ug/mi | 0.25 ug/mi | 1 ug/mi
CCCN1C[C@H](C)[C@@H](O)[C@](C)(O)[C@@H](CC)OC(=O)[C@H](C)[C@@H](O[C@H]2C[C@@](C)(OC)[C@](O)(CNCC(C)C)[C@H](C)O2)[C@H](C)[C@@H](O[C@@H]2O[C@H](C)C[C@H](N(C)C)[C@H]2O)[C@](C)(O)C[C@H]1C [syzx-112] | 0.25 ug/mi | 0.25 ug/mi | 0.25 ug/mi | 0.25 ug/mi | 0.5 ug/mi
CCCN1CC(C)C(O)C(C)(O)C(CC)OC(=O)C(C)C(OC2CC(C)(OC)C(O)(CNCCOS(=O)(=O)O)C(C)O2)C(C)C(OC2OC(C)CC(N(C)C)C2O)C(C)(O)CC1C (stereo not drawn) [syzx-153] | 0.25 ug/mi | 0.25 ug/mi | 0.25 ug/mi | 0.25 ug/mi | 1 ug/mi
CCCN1C[C@H](C)[C@@H](O)[C@](C)(O)[C@@H](CC)OC(=O)[C@H](C)[C@@H](O[C@H]2C[C@@](C)(OC)[C@](O)(CNCc3ccc(F)cc3F)[C@H](C)O2)[C@H](C)[C@@H](O[C@@H]2O[C@H](C)C[C@H](N(C)C)[C@H]2O)[C@](C)(O)C[C@H]1C [syzx-131] | 0.25 ug/mi | 0.25 ug/mi | 0.25 ug/mi | 0.25 ug/mi | 0.5 ug/mi
CC[C@H]1OC(=O)[C@H](C)[C@@H](O[C@H]2C[C@@](C)(OC)[C@](O)(CNCc3ccc(Cl)c(Cl)c3)[C@H](C)O2)[C@H](C)[C@@H](O[C@@H]2O[C@H](C)C[C@H](N(C)C)[C@H]2O)[C@](C)(O)C[C@@H](C)NC[C@H](C)[C@@H](O)[C@]1(C)O [syzx-57, (2R,3S,4R,5S,8R,10R,11R,12S,13S,14R)-13-[(2,6-dideoxy-3-C-methyl-3-O-methyl-4-C-[(3,4-dichloro-benzylamino)-methyl]-α-L-ribopyranosyl)oxy]-2-ethyl-3,4,10-trihydroxy-3,5,8,10,12,14-hexamethyl-11-[[3,4,6-trideoxy-3-(dimethylamino)-β-D-xylo-hexopyranosy]oxy]-1-oxa-7-azacyclopentadecan-15-one] | ≦0.25 ug/mi | 4 ug/mi | ≦0.25 ug/mi | ≦0.25 ug/mi | 32 ug/mi
CCCN1C[C@H](C)[C@@H](O)[C@](C)(O)[C@@H](CC)OC(=O)[C@H](C)[C@@H](O[C@H]2C[C@@](C)(OC)[C@](O)(CNCC3(C)CC(N)CC(C)(C)C3)[C@H](C)O2)[C@H](C)[C@@H](O[C@@H]2O[C@H](C)C[C@H](N(C)C)[C@H]2O)[C@](C)(O)C[C@H]1C (stereo partly drawn) [syzx-106] | 2 ug/mi | 0.25 ug/mi | 0.5 ug/mi | 0.5 ug/mi | 2 ug/mi
CC[C@H]1OC(=O)[C@H](C)[C@@H](O[C@H]2C[C@@](C)(OC)[C@](O)(CNC(C)CCc3ccccc3)[C@H](C)O2)[C@H](C)[C@@H](O[C@@H]2O[C@H](C)C[C@H](N(C)C)[C@H]2O)[C@](C)(O)C[C@@H](C)NC[C@H](C)[C@@H](O)[C@]1(C)O (stereo partly drawn) [syzx-34, (2R,3S,4R,5S,8R,10R,11R,12S,13S,14R)-13-[(2,6-dideoxy-3-C-methyl-3-O-methyl-4-C-[[(1-methyl-3-phenyl)propyl-amino]-methyl]-α-L-ribopyranosyl)oxy]-2-ethyl-3,4,10-trihydroxy-3,5,8,10,12,14-hexamethyl-11-[[3,4,6-trideoxy-3-(dimethylamino)-β-D-xylo-hexopyranosy]oxy]-1-oxa-7-azacyclopentadecan-15-one] | 8 ug/mi | 0.5 ug/mi | 8 ug/mi | 4 ug/mi | 16 ug/mi
CCCN1C[C@H](C)[C@@H](O)[C@](C)(O)[C@@H](CC)OC(=O)[C@H](C)[C@@H](O[C@H]2C[C@@](C)(OC)[C@](O)(CNC(C)CC(=O)O)[C@H](C)O2)[C@H](C)[C@@H](O[C@@H]2O[C@H](C)C[C@H](N(C)C)[C@H]2O)[C@](C)(O)C[C@H]1C (stereo partly drawn) [syzx-150] | 0.5 ug/mi | 0.25 ug/mi | 1 ug/mi | 0.5 ug/mi | 2 ug/mi
CCCN1C[C@H](C)[C@@H](O)[C@](C)(O)[C@@H](CC)OC(=O)[C@H](C)[C@@H](O[C@H]2C[C@@](C)(OC)[C@](O)(CNCCCC(OC)OC)[C@H](C)O2)[C@H](C)[C@@H](O[C@@H]2O[C@H](C)C[C@H](N(C)C)[C@H]2O)[C@](C)(O)C[C@H]1C [syzx-205] | 4 ug/mi | 0.5 ug/mi | 4 ug/mi | 4 ug/mi | 4 ug/mi
CCCN1CC(C)C(O)C(C)(O)C(CC)OC(=O)C(C)C(OC2CC(C)(OC)C(O)(CNc3n[nH]c(S)n3)C(C)O2)C(C)C(OC2OC(C)CC(N(C)C)C2O)C(C)(O)CC1C (stereo not drawn) [syzx-210] | 2 ug/mi | 0.25 ug/mi | 0.5 ug/mi | 0.5 ug/mi | 4 ug/mi
CCCN1C[C@H](C)[C@@H](O)[C@](C)(O)[C@@H](CC)OC(=O)[C@H](C)[C@@H](O[C@H]2C[C@@](C)(OC)[C@](O)(CNCCc3ccncc3)[C@H](C)O2)[C@H](C)[C@@H](O[C@@H]2O[C@H](C)C[C@H](N(C)C)[C@H]2O)[C@](C)(O)C[C@H]1C [syzx-191] | 1 ug/mi | 0.5 ug/mi | 0.5 ug/mi | 0.5 ug/mi | 4 ug/mi
CC[C@H]1OC(=O)[C@H](C)[C@@H](O[C@H]2C[C@@](C)(OC)[C@](O)(CNCCCO)[C@H](C)O2)[C@H](C)[C@@H](O[C@@H]2O[C@H](C)C[C@H](N(C)C)[C@H]2O)[C@](C)(O)C[C@@H](C)NC[C@H](C)[C@@H](O)[C@]1(C)O [syzx-46, (2R,3S,4R,5S,8R,10R,11R,12S,13S,14R)-13-[(2,6-dideoxy-3-C-methyl-3-O-methyl-4-C-[(3-hydroxy-propylamino)-methyl]-α-L-ribopyranosyl)oxy]-2-ethyl-3,4,10-trihydroxy-3,5,8,10,12,14-hexamethyl-11-[[3,4,6-trideoxy-3-(dimethylamino)-β-D-xylo-hexopyranosy]oxy]-1-oxa-7-azacyclopentadecan-15-one] | 1 ug/mi | 2 ug/mi | 32 ug/mi | ≦0.25 ug/mi | 4 ug/mi
CCCN1C[C@H](C)[C@@H](O)[C@](C)(O)[C@@H](CC)OC(=O)[C@H](C)[C@@H](O[C@H]2C[C@@](C)(OC)[C@](O)(CNC(CC)C(=O)O)[C@H](C)O2)[C@H](C)[C@@H](O[C@@H]2O[C@H](C)C[C@H](N(C)C)[C@H]2O)[C@](C)(O)C[C@H]1C (stereo partly drawn) [syzx-141] | 0.25 ug/mi | 0.25 ug/mi | 0.25 ug/mi | 0.25 ug/mi | 1 ug/mi
CCCN1C[C@H](C)[C@@H](O)[C@](C)(O)[C@@H](CC)OC(=O)[C@H](C)[C@@H](O[C@H]2C[C@@](C)(OC)[C@](O)(CNc3nc(Cl)cc(Cl)n3)[C@H](C)O2)[C@H](C)[C@@H](O[C@@H]2O[C@H](C)C[C@H](N(C)C)[C@H]2O)[C@](C)(O)C[C@H]1C [syzx-202] | 2 ug/mi | 0.25 ug/mi | 2 ug/mi | 4 ug/mi | 2 ug/mi
CC[C@H]1OC(=O)[C@H](C)[C@@H](O[C@H]2C[C@@](C)(OC)[C@](O)(CNCc3ccc(F)cc3F)[C@H](C)O2)[C@H](C)[C@@H](O[C@@H]2O[C@H](C)C[C@H](N(C)C)[C@H]2O)[C@](C)(O)C[C@@H](C)NC[C@H](C)[C@@H](O)[C@]1(C)O [syzx-31] | ≦0.25 ug/mi | ≦0.25 ug/mi | 1 ug/mi | ≦0.25 ug/mi | ≦0.25 ug/mi
